# Measurements published in patent US20140120060A1, “TREATMENT OF RHEUMATOID ARTHRITIS AND ASTHMA USING PI3 KINASE INHIBITORS” (INFINITY PHARMACEUTICALS, INC., priority 2012, published 2014).
# Test system: developing adjuvant arthritis
# Experiment: Freund's complete adjuvant induced rat model of arthritis
# Assay type: in vivo
# Conditions: reference treatment, dose not stated
# Source text: Freund's complete adjuvant induced arthritis in the rat is an experimental model of polyarthritis that has been widely used for nonclinical testing of numerous anti-arthritic agents that are either under nonclinical or clinical investigation, or are currently used as therapeutics in this disease.
structure (smiles),measurement,value
"C[C@@H]1C[C@H]2[C@@H]3CCC4=CC(=O)C=C[C@]4(C)[C@@]3(F)[C@@H](O)C[C@]2(C)[C@@]1(O)C(=O)CO [dexamethasone, reference compound]",inhibition of ankle diameter AUC (d7-14) increase,71%
same,reduction of histopathologic bone resorption,97%
same,reduction of histopathologic inflammation,56%
